From patent publication US8846710B2, “Method of preferentially inducing the biosynthesis of interferon” (3M Innovative Properties Company, priority 2005, dated 2014)

Experiments:
[1] = system: tumor necrosis factor (α) (TNF-α); assay: Cytokine induction in human cells: TNF-α secreted by PBMC into culture media (ORIGEN M-Series immunoassay); assay type: cell-based; set-up: key to Maximal Response (pg/mL) TNF / Maximal Response TNF: If any negative values result from background subtraction, the reading is reported as “*”, and is noted as not reliably detectable; settings: for Minimum Effective Concentration TNF / Maximal Response TNF / minimal effective concentration: human PBMC; for Minimum Effective Concentration TNF: median where tested in more than one experiment; for Maximal Response TNF / Maximal Response (pg/mL) TNF: median; for minimal effective concentration: lowest tested concentration inducing TNF-α over usually 40 pg/mL, median where more than one experiment, read-out: Minimum Effective Concentration (μM) TNF; for Maximal Response (pg/mL) TNF: maximal response in dose response curve
Procedure, shortened: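 Human donor PBMC (final 2×10^6 cells/mL) were incubated 18 to 24 hours at 37° C with compound, usually 30-0.014 μM in 3-fold steps, ≤1% DMSO. Supernatant TNF-α was measured by ORIGEN immunoassay, background-subtracted and reference-adjusted; minimum effective concentration was the lowest concentration exceeding a fixed cytokine threshold.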

interferon (α) (IFN-α) = assay: Cytokine induction in human cells: IFN-α secreted by PBMC into culture media (ELISA); assay type: cell-based; settings: for Maximal Response IFN / Minimum Effective Concentration IFN / minimal effective concentration: human PBMC; for Maximal Response IFN / Minimum Effective Concentration IFN: median where tested in more than one experiment; for minimal effective concentration: lowest tested concentration inducing IFN-α over usually 20 pg/mL, median where more than one experiment, read-out: Minimum Effective Concentration (μM) IFN; for Maximal Response (pg/mL) IFN: maximal response in dose response curve, median
Procedure, shortened: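 Human donor PBMC, 2×10^6 cells/mL final in RPMI complete, treated 18–24 h at 37 °C, 5% CO2 with 3-fold dilutions (usually 30-0.014 μM), DMSO ≤1%. Supernatant IFN-α by multi-subtype sandwich ELISA, background-subtracted and reference-adjusted; minimum effective concentration = lowest concentration exceeding usually 20 pg/mL.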

[2] = Table 11, * = TNF below experimental background of 40 pg/mL
[3] = Table 10, * = below experimental background level
[4] = Table 8, background-subtracted, reference-adjusted
[5] = Table 12, * = below the experimental background of 40 pg/mL

Structure (SMILES)	Minimum Effective Concentration TNF ([1]; Table 11) [µM]	Maximal Response TNF [1, 2]	Maximal Response IFN (interferon (α) (IFN-α); Table 11) [pg/mL]	Minimum Effective Concentration IFN (interferon (α) (IFN-α); Table 11) [µM]	further results
CCOCc1nc2c(N)nc3ccccc3c2n1CCCCNC(=O)N1CCOCC1 [Analog 56]	1.11	1580 pg/mL	3433	0.12	
CCCc1nc2c(N)nc3ccccc3c2n1CC(C)(C)NC(=O)NC(C)C [Analog 107]	3.33	6363 pg/mL	1428	1.11	
CCOCc1nc2c(N)nc3cc(-c4cccc(C(=O)N5CCOCC5)c4)ccc3c2n1CC1CCCCC1 [Analog 46]					minimal effective concentration ([1]; Table 10): 0.37 µM; Maximal Response (pg/mL) TNF [1, 3]: 1054 pg/mL; minimal effective concentration (interferon (α) (IFN-α); Table 10): 0.014 µM; Maximal Response (pg/mL) IFN (interferon (α) (IFN-α); [3]): 815 pg/mL
Nc1nc2ccccc2c2c1nc(CCO)n2CCCNC(=O)N1CCOCC1 [Example 128]	>30	*	75	30	
Cc1cccc(-c2ccc3c(c2)nc(N)c2nc(CO)n(CC(C)(C)O)c23)c1 [Example 164]					minimal effective concentration ([1]; Table 10): >30 µM; Maximal Response (pg/mL) TNF [1, 3]: *; minimal effective concentration (interferon (α) (IFN-α); Table 10): 30 µM; Maximal Response (pg/mL) IFN (interferon (α) (IFN-α); [3]): 87 pg/mL
CCCC(=O)NCCCCn1c(CO)nc2c(N)nc3cc(-c4cccnc4)ccc3c21 [Example 196]					minimal effective concentration ([1]; Table 10): > 30 µM; minimal effective concentration (interferon (α) (IFN-α); Table 10): 0.12 µM
NCCCn1c(CCO)nc2c(N)nc3ccccc3c21 [Example 120]	>30	*	5636	3.33	
COCCc1nc2c(N)nc3cc(-c4cccnc4)ccc3c2n1CC(C)(C)O [Analog 12]					minimal effective concentration ([1]; Table 10): 0.014 µM; Maximal Response (pg/mL) TNF [1, 3]: 8386 pg/mL; minimal effective concentration (interferon (α) (IFN-α); Table 10): 0.014 µM; Maximal Response (pg/mL) IFN (interferon (α) (IFN-α); [3]): 1065 pg/mL
CCNC(=O)NCCn1c(CCOC)nc2c(N)nc3ccccc3c21 [Analog 104]	0.12	7719 pg/mL	2587	0.014	
CCCCNC(=O)NCCCn1c(CCOC)nc2c(N)nc3ccccc3c21 [Analog 98]	0.04	6169 pg/mL	5915	0.014	
CC(C)(O)Cn1c(CO)nc2c(N)nc3cccnc3c21 [Example 148, 1-(4-Amino-2-hydroxymethyl-1H-imidazo[4,5-c][1,5]naphthyridin-1-yl)-2-methylpropan-2-ol]					Maximal Response (pg/mL) TNF [1, 4]: 684 pg/mL; Maximal Response TNF [1, 5]: 1316 pg/mL; Maximal Response (pg/mL) IFN (interferon (α) (IFN-α); [4]): 3038 pg/mL; Maximal Response IFN (interferon (α) (IFN-α); Table 12): 2290 pg/mL
CCCc1nc2c(N)nc3cc(-c4cccnc4)ccc3c2n1CC1CCN(C(=O)C(C)C)CC1 [Analog 20]					minimal effective concentration ([1]; Table 10): 0.37 µM; Maximal Response (pg/mL) TNF [1, 3]: 1054 pg/mL; minimal effective concentration (interferon (α) (IFN-α); Table 10): 0.12 µM; Maximal Response (pg/mL) IFN (interferon (α) (IFN-α); [3]): 1157 pg/mL
CCOCc1nc2c(N)nc3ccccc3c2n1CCCN [Analog 85]	30	411 pg/mL	1325	0.12	
CC(C)(Cn1c(CCO)nc2c(N)nc3ccccc3c21)NS(C)(=O)=O [Example 6, N-{2-[4-Amino-2-(2-hydroxyethyl)-1H-imidazo[4,5-c]quinolin-1-yl]-1,1-dimethylethyl}methanesulfonamide]		*	6527		Maximal Response (pg/mL) IFN (interferon (α) (IFN-α); Table 7, background-subtracted, reference-adjusted): 7521 pg/mL
CCCc1nc2c(N)nc3ccccc3c2n1CCCNC(=O)NC(C)C [Analog 82]	1.11	3740 pg/mL	6571	0.12	
CCc1nc2c(N)nc3cc(-c4cccnc4)ccc3c2n1CC(C)(C)O [Analog 8, 1-(4-amino-2-ethyl-7-pyridin-3-yl-1H-imidazo[4,5-c]quinolin-1-yl)-2-methylpropan-2-ol]					Maximal Response (pg/mL) TNF ([1]; Table 9, * = below experimental background level of 40 pg/mL): 3234 pg/mL; Maximal Response (pg/mL) TNF [1, 3]: 3571 pg/mL; Maximal Response (pg/mL) IFN (interferon (α) (IFN-α); Table 9, background-subtracted, reference-adjusted): 1118 pg/mL; Maximal Response (pg/mL) IFN (interferon (α) (IFN-α); [3]): 1652 pg/mL
CCCNC(=O)NCCCCn1c(COCC)nc2c(N)nc3cc(-c4cccnc4)ccc3c21 [Analog 29]					minimal effective concentration ([1]; Table 10): 1.11 µM; Maximal Response (pg/mL) TNF [1, 3]: 1059 pg/mL; minimal effective concentration (interferon (α) (IFN-α); Table 10): 0.04 µM; Maximal Response (pg/mL) IFN (interferon (α) (IFN-α); [3]): 936 pg/mL

Structure (SMILES)	Minimum Effective Concentration TNF ([1]; Table 11) [µM]	Maximal Response TNF [1, 2]	Maximal Response IFN (interferon (α) (IFN-α); Table 11) [pg/mL]	Minimum Effective Concentration IFN (interferon (α) (IFN-α); Table 11) [µM]	further results
CC(C)(CN)Cn1c(CCO)nc2c(N)nc3ccccc3c21 [Example 129]	30	85 pg/mL	2702	0.37	
CC(C)NC(=O)NC(C)(C)Cn1c(CO)nc2c(N)nc3ccccc3c21 [Example 142, 1-[2-(4-Amino-2-hydroxymethyl-1H-imidazo[4,5-c]quinolin-1-yl)-1,1-dimethylethyl]-3-(1-methylethyl)urea]		*	1554		
CCc1nc2c(N)nc3cccnc3c2n1CC(C)(C)O [Analog 127, 1-(4-amino-2-ethyl-1H-imidazo[4,5-c][1,5]naphthyridin-1-yl)-2-methylpropan-2-ol]					Maximal Response TNF [1, 5]: 3863 pg/mL; Maximal Response IFN (interferon (α) (IFN-α); Table 12): 2150 pg/mL
COCCc1nc2c(N)nc3ccccc3c2n1CCCNC(=O)c1ccccc1 [Analog 102]	1.11	3080 pg/mL	1504	0.014	
COCCc1nc2c(N)nc3ccccc3c2n1CCCCNC(=O)c1cnc2ccccc2c1 [Analog 115]	0.04	9340 pg/mL	7545	0.014	
CCOCc1nc2c(N)nc3cc(-c4ccccc4)ccc3c2n1CCCN1CCCC1=O [Analog 22]					minimal effective concentration ([1]; Table 10): 1.11 µM; Maximal Response (pg/mL) TNF [1, 3]: 62 pg/mL; minimal effective concentration (interferon (α) (IFN-α); Table 10): 0.37 µM; Maximal Response (pg/mL) IFN (interferon (α) (IFN-α); [3]): 1665 pg/mL
CCOCc1nc2c(N)nc3ccccc3c2n1CC(C)(C)CNC(=O)Nc1ccccc1 [Analog 91]	0.04	3618 pg/mL	1133	0.014	
CCOCc1nc2c(N)nc3ccccc3c2n1CC(C)(C)CNS(C)(=O)=O [Analog 66]	0.37	3768 pg/mL	561	0.12	
CC(C)Cn1c(CO)nc2c(N)nc3cccnc3c21 [Example 633, [4-Amino-1-(2-methylpropyl)-1H-imidazo[4,5-c][1,5]naphthyridin-2-yl]methanol]					Maximal Response TNF [1, 5]: 363 pg/mL; Maximal Response IFN (interferon (α) (IFN-α); Table 12): 1592 pg/mL
Nc1nc2cc(-c3cccnc3)ccc2c2c1nc(CO)n2CCCCNC(=O)NC1CCCC1 [Example 197]					Maximal Response (pg/mL) TNF [1, 3]: 600 pg/mL; Maximal Response (pg/mL) IFN (interferon (α) (IFN-α); [3]): 4373 pg/mL
CCNC(=O)NCCn1c(CCO)nc2c(N)nc3ccccc3c21 [Example 137]	30	73 pg/mL	801	30	
CCOCc1nc2c(N)nc3cccnc3c2n1CC(C)(C)NC(=O)C1CCCCC1 [Analog 129, N-[2-(4-amino-2-ethoxymethyl-1H-imidazo[4,5-c][1,5]naphthyridin-1-yl)-1,1-dimethylethyl]cyclohexanecarboxamide]					Maximal Response TNF [1, 5]: 8691 pg/mL; Maximal Response IFN (interferon (α) (IFN-α); Table 12): 1647 pg/mL
CCOCc1nc2c(N)nc3ccccc3c2n1CC(C)(C)NC(=O)NC(C)C [Analog 108]	1.11	10587 pg/mL	966	0.37	
CCc1nc2c(N)nc3ccccc3c2n1CCNS(C)(=O)=O [Analog 69]	10	820 pg/mL	1610	0.12	
CC(C)(CNC(=O)Nc1ccccc1)Cn1c(CCO)nc2c(N)nc3ccccc3c21 [Example 130]	3.33	2001 pg/mL	8361	0.014	
CCCCCCCCCCCCCCCC(=O)NCCOCCn1c(CCO)nc2c(N)nc3ccccc3c21 [Example 140]	>30	*	673	1.11	
